Assay results reported in patent US8278345B2, “Inhibitors of glutaminyl cyclase” (Probiodrug AG, priority 2006, dated 2012).
pIC50: −log10 of the molar value. Where two headings read alike, the source gives them in different places.

Biological target: hQC (Homo sapiens, UniProt Q16769)
Assay: Inhibitor assay for glutaminyl cyclase activity (fluorometric, H-Gln-βNA / H-Gln-AMC)
Assay type: biochemical
Procedure, shortened: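 Ki values came from fitting progress curves to a competitive inhibition model; rapid screens used 4 mM inhibitor with substrate at KM. QC activity was read at 30 °C via auxiliary pyroglutamyl aminopeptidase releasing βNA (0.2 mM H-Gln-βNA, 0.2 M Tris pH 8.0, 20 mM EDTA) or AMC (0.05 M Tris pH 8.0, 5 mM EDTA).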

[1] = compound from preparative synthesis, purified, read-out: IC50 hQC

hQC, sequence (Q16769 29-361): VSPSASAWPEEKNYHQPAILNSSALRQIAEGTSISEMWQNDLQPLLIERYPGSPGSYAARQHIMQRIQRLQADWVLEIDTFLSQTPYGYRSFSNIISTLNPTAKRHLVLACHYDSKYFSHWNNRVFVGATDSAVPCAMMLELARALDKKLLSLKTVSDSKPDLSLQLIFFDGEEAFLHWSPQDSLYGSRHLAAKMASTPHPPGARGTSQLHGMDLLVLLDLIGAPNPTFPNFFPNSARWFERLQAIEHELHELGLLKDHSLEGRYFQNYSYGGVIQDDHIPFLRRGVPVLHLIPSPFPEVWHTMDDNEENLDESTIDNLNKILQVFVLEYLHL

Structure (SMILES) | pIC50 (read-out: IC50) | pIC50 [1]
O=C1C(O)=C(c2ccc(O)cc2)C(c2c(O)ccc3ccccc23)N1CCCn1ccnc1 (stereo not drawn) [Compound 170, 3-Hydroxy-5-(2-hydroxy-naphthalen-1-yl)-4-(4-hydroxy-phenyl)-1-(3-imidazol-1-yl-propyl)-1,5-dihydro-pyrrol-2-one] | 5.89 | –
O=C1C(O)=C(c2ccc(O)cc2)C(c2ccccn2)N1CCCn1ccnc1 (stereo not drawn) [Compound 171, 3-Hydroxy-4-(4-hydroxy-phenyl)-1-(3-imidazol-1-yl-propyl)-5-pyridin-2-yl-1,5-dihydro-pyrrol-2-one] | 6.40 | –
O=C1C(O)=C(c2ccc(O)cc2)C(c2ccncc2)N1CCCn1ccnc1 (stereo not drawn) [Compound 172, 3-Hydroxy-4-(4-hydroxy-phenyl)-1-(3-imidazol-1-yl-propyl)-5-pyridin-4-yl-1,5-dihydro-pyrrol-2-one] | 5.12 | –
O=C1C(O)=C(c2ccc(O)cc2)C(c2cccs2)N1CCCn1ccnc1 (stereo not drawn) [Compound 173, 3-Hydroxy-4-(4-hydroxy-phenyl)-1-(3-imidazol-1-yl-propyl)-5-thiophen-2-yl-1,5-dihydro-pyrrol-2-one] | 7.40 | –
O=C1C(O)=C(c2ccc(O)cc2)C(CO)N1CCCn1ccnc1 (stereo not drawn) [Compound 174, 3-Hydroxy-5-hydroxymethyl-4-(4-hydroxy-phenyl)-1-(3-imidazol-1-yl-propyl)-1,5-dihydro-pyrrol-2-one] | 6.40 | –
O=C1C(O)=C(c2ccc(O)cc2)C(C2CC2)N1CCCn1ccnc1 (stereo not drawn) [Compound 175, 5-Cyclopropyl-3-hydroxy-4-(4-hydroxy-phenyl)-1-(3-imidazol-1-yl-propyl)-1,5-dihydro-pyrrol-2-one] | 7.40 | –
O=C1C(O)=C(c2ccc(O)cc2)C(c2ccco2)N1CCCn1ccnc1 (stereo not drawn) [Compound 176, 5-Furan-2-yl-3-hydroxy-4-(4-hydroxy-phenyl)-1-(3-imidazol-1-yl-propyl)-1,5-dihydro-pyrrol-2-one] | 7.40 | –
CCCCC1C(c2ccc(O)cc2)=C(O)C(=O)N1CCCn1ccnc1 (stereo not drawn) [Compound 177, 5-Butyl-3-hydroxy-4-(4-hydroxy-phenyl)-1-(3-imidazol-1-yl-propyl)-1,5-dihydro-pyrrol-2-one] | 7.40 | –
CCC1C(c2ccc(O)cc2)=C(O)C(=O)N1CCCn1ccnc1 (stereo not drawn) [Compound 178, 5-Ethyl-3-hydroxy-4-(4-hydroxy-phenyl)-1-(3-imidazol-1-yl-propyl)-1,5-dihydro-pyrrol-2-one] | 6.40 | –
O=C1C(O)=C(c2ccc(O)cc2)C(c2cccc(Cl)c2)N1CCCn1ccnc1 (stereo not drawn) [Compound 179, 5-(3-Chloro-phenyl)-3-hydroxy-4-(4-hydroxy-phenyl)-1-(3-imidazol-1-yl-propyl)-1,5-dihydro-pyrrol-2-one] | 7.40 | –
O=C1C(O)=C(c2ccc(O)cc2)C(c2ccccc2F)N1CCCn1ccnc1 (stereo not drawn) [Compound 180, 5-(2-Fluoro-phenyl)-3-hydroxy-4-(4-hydroxy-phenyl)-1-(3-imidazol-1-yl-propyl)-1,5-dihydro-pyrrol-2-one] | 7.40 | 6.46
O=C1C(O)=C(c2ccc(O)cc2)C(c2ccc(O)cc2)N1CCCn1ccnc1 (stereo not drawn) [Compound 181, 3-Hydroxy-4,5-bis-(4-hydroxy-phenyl)-1-(3-imidazol-1-yl-propyl)-1,5-dihydro-pyrrol-2-one] | 7.40 | –
O=C1C(O)=C(c2ccc(O)cc2)C(c2cccc(O)c2)N1CCCn1ccnc1 (stereo not drawn) [Compound 182, 3-Hydroxy-5-(3-hydroxy-phenyl)-4-(4-hydroxy-phenyl)-1-(3-imidazol-1-yl-propyl)-1,5-dihydro-pyrrol-2-one] | 7.40 | –
CCCCCC1=C(O)C(=O)N(CCCn2ccnc2)C1c1cc(Cl)cc(Cl)c1O (stereo not drawn) [Compound 183, 5-(3,5-Dichloro-2-hydroxy-phenyl)-3-hydroxy-1-(3-imidazol-1-yl-propyl)-4-pentyl-1,5-dihydro-pyrrol-2-one] | 7.40 | –
CCCCCC1=C(O)C(=O)N(CCCn2ccnc2)C1c1ccc(C)cc1 (stereo not drawn) [Compound 184, 3-Hydroxy-1-(3-imidazol-1-yl-propyl)-4-pentyl-5-p-tolyl-1,5-dihydro-pyrrol-2-one] | 7.40 | –
CCC/C=C/C1C(CCCCC)=C(O)C(=O)N1CCCn1ccnc1 (stereo not drawn) [Compound 185, 3-Hydroxy-1-(3-imidazol-1-yl-propyl)-5-(pent-1-enyl)-4-pentyl-1,5-dihydro-pyrrol-2-one] | 5.89 | –
CCCCCC1=C(O)C(=O)N(CCCn2ccnc2)C1C(C)CC (stereo not drawn) [Compound 186, 5-sec-Butyl-3-hydroxy-1-(3-imidazol-1-yl-propyl)-4-pentyl-1,5-dihydro-pyrrol-2-one] | 6.40 | –
CCCCCC1=C(O)C(=O)N(CCCn2ccnc2)C1CCC (stereo not drawn) [Compound 187, 3-Hydroxy-1-(3-imidazol-1-yl-propyl)-4-pentyl-5-propyl-1,5-dihydro-pyrrol-2-one] | 7.40 | –
CCCCCC1=C(O)C(=O)N(CCCn2ccnc2)C1c1cc[nH]n1 (stereo not drawn) [Compound 188, 3-Hydroxy-1-(3-imidazol-1-yl-propyl)-4-pentyl-5-(1H-pyrazol-3-yl)-1,5-dihydro-pyrrol-2-one] | 6.40 | –
CCCCCC1=C(O)C(=O)N(CCCn2ccnc2)C1C(O)CO (stereo not drawn) [Compound 189, 5-(1,2-Dihydroxy-ethyl)-3-hydroxy-1-(3-imidazol-1-yl-propyl)-4-pentyl-1,5-dihydro-pyrrol-2-one] | 6.40 | –

Structure (SMILES) | pIC50 (read-out: IC50) | pIC50 [1]
CCCCCC1=C(O)C(=O)N(CCCn2ccnc2)C1/C=C/C(C)C (stereo not drawn) [Compound 190, 3-Hydroxy-1-(3-imidazol-1-yl-propyl)-5-(3-methyl-but-1-enyl)-4-pentyl-1,5-dihydro-pyrrol-2-one] | 6.40 | –
CCCCCC1=C(O)C(=O)N(CCCn2ccnc2)C1c1ccc(C)o1 (stereo not drawn) [Compound 191, 3-Hydroxy-1-(3-imidazol-1-yl-propyl)-5-(5-methyl-furan-2-yl)-4-pentyl-1,5-dihydro-pyrrol-2-one] | 7.40 | 5.76
CCCCCC1=C(O)C(=O)N(CCCn2ccnc2)C1c1ccc2[nH]ccc2c1 (stereo not drawn) [Compound 192, 3-Hydroxy-1-(3-imidazol-1-yl-propyl)-5-(1H-indol-5-yl)-4-pentyl-1,5-dihydro-pyrrol-2-one] | 7.40 | –
CCCCCC1=C(O)C(=O)N(CCCn2ccnc2)C1c1ccc(OC)cc1 (stereo not drawn) [Compound 193, 3-Hydroxy-1-(3-imidazol-1-yl-propyl)-5-(4-methoxy-phenyl)-4-pentyl-1,5-dihydro-pyrrol-2-one] | 7.40 | 5.98
CCCCCC1=C(O)C(=O)N(CCCn2ccnc2)C1c1ccccc1O (stereo not drawn) [Compound 194, 3-Hydroxy-5-(2-hydroxy-phenyl)-1-(3-imidazol-1-yl-propyl)-4-pentyl-1,5-dihydro-pyrrol-2-one] | 7.40 | –
CCCCCC1=C(O)C(=O)N(CCCn2ccnc2)C1c1ccc(C)c(C)c1 (stereo not drawn) [Compound 195, 5-(3,4-Dimethyl-phenyl)-3-hydroxy-1-(3-imidazol-1-yl-propyl)-4-pentyl-1,5-dihydro-pyrrol-2-one] | 7.40 | –
CCCCCC1=C(O)C(=O)N(CCCn2ccnc2)C1CCCCC (stereo not drawn) [Compound 196, 3-Hydroxy-1-(3-imidazol-1-yl-propyl)-4,5-dipentyl-1,5-dihydro-pyrrol-2-one] | 7.40 | –
CCCCCC1=C(O)C(=O)N(CCCn2ccnc2)C1C (stereo not drawn) [Compound 197, 3-Hydroxy-1-(3-imidazol-1-yl-propyl)-5-methyl-4-pentyl-1,5-dihydro-pyrrol-2-one] | 7.40 | –
CCCCCC1=C(O)C(=O)N(CCCn2ccnc2)C1c1ccc(CO)o1 (stereo not drawn) [Compound 198, 3-Hydroxy-5-(5-hydroxymethyl-furan-2-yl)-1-(3-imidazol-1-yl-propyl)-4-pentyl-1,5-dihydro-pyrrol-2-one] | 7.40 | –
CCCCCC1=C(O)C(=O)N(CCCn2ccnc2)C1c1ccccc1 (stereo not drawn) [Compound 199, 3-Hydroxy-1-(3-imidazol-1-yl-propyl)-4-pentyl-5-phenyl-1,5-dihydro-pyrrol-2-one] | 7.40 | –
CCCCCC1=C(O)C(=O)N(CCCn2ccnc2)C1C1CCC=CO1 (stereo not drawn) [Compound 200, 5-(3,4-Dihydro-2H-pyran-2-yl)-3-hydroxy-1-(3-imidazol-1-yl-propyl)-4-pentyl-1,5-dihydro-pyrrol-2-one] | 7.40 | –
CCCCCC1=C(O)C(=O)N(CCCn2ccnc2)C1C1=CCCCC1 (stereo not drawn) [Compound 201, 5-Cyclohex-1-enyl-3-hydroxy-1-(3-imidazol-1-yl-propyl)-4-pentyl-1,5-dihydro-pyrrol-2-one] | 5.89 | –
CCCCCC1=C(O)C(=O)N(CCCn2ccnc2)C1c1c[nH]c2cc(C)ccc12 (stereo not drawn) [Compound 202, 3-Hydroxy-1-(3-imidazol-1-yl-propyl)-5-(6-methyl-1H-indol-3-yl)-4-pentyl-1,5-dihydro-pyrrol-2-one] | 7.40 | –
CCCCCC1=C(O)C(=O)N(CCCn2ccnc2)C1C(F)(F)F (stereo not drawn) [Compound 203, 3-Hydroxy-1-(3-imidazol-1-yl-propyl)-4-pentyl-5-trifluoromethyl-1,5-dihydro-pyrrol-2-one] | 7.40 | –
CCCCCC1=C(O)C(=O)N(CCCn2ccnc2)C1c1c[nH]c2ccccc12 (stereo not drawn) [Compound 204, 3-Hydroxy-1-(3-imidazol-1-yl-propyl)-5-(1H-indol-3-yl)-4-pentyl-1,5-dihydro-pyrrol-2-one] | 7.40 | –
CCCCCC1=C(O)C(=O)N(CCCn2ccnc2)C1c1ncc[nH]1 (stereo not drawn) [Compound 205, 3-Hydroxy-5-(1H-imidazol-2-yl)-1-(3-imidazol-1-yl-propyl)-4-pentyl-1,5-dihydro-pyrrol-2-one] | 5.66 | –
CCCCCC1=C(O)C(=O)N(CCCn2ccnc2)C1Cc1ccccc1 (stereo not drawn) [Compound 206, 5-Benzyl-3-hydroxy-1-(3-imidazol-1-yl-propyl)-4-pentyl-1,5-dihydro-pyrrol-2-one] | 6.40 | –
CCCCCC1=C(O)C(=O)N(CCCn2ccnc2)C1c1c(O)ccc2ccccc12 (stereo not drawn) [Compound 207, 3-Hydroxy-5-(2-hydroxy-naphthalen-1-yl)-1-(3-imidazol-1-yl-propyl)-4-pentyl-1,5-dihydro-pyrrol-2-one] | 5.51 | –
CCCCCC1=C(O)C(=O)N(CCCn2ccnc2)C1c1ccccn1 (stereo not drawn) [Compound 208, 3-Hydroxy-1-(3-imidazol-1-yl-propyl)-4-pentyl-5-pyridin-2-yl-1,5-dihydro-pyrrol-2-one] | 6.40 | –
